In brackets after ≈: the same amount, converted by molar mass.
Legend:
Type in all cases: physicochemical
[1] = HPLC method quantifying low levels of D9-THC in stored cannabidiol samples
Experimental: An analytical method using HPLC was developed to determine low levels of delta-9-tetrahydrocannabinol in cannabidiol samples. A Waters XBridge C18 3.5 μm, 3.0×150 mm column was employed and operated at a temperature of 30° C., UV wavelength of 225 nm, and injection size of 20 μL. Mobile Phase A was 0.02% (v/v) acetic acid in H2O, while mobile phase B was 0.02% (v/v) acetic acid in acetonitrile (ACN).
An aliquot of 0.5 mL of a D9-THC reference standard (Cerilliant, 1.0 mg/mL MeOH solution) was diluted in a 500-mL volumetric flask using sample diluent (70/30 Acetonitrile/H2O, v/v). The D9-THC concentration was 0.001 mg/mL in the standard stock solution, which corresponded with 200 ppm of D9-THC as compared to the CBD sample solution (nominal CBD concentration was 5.0 mg/mL).
An Aliquot of 5 mL of THC Stock Standard Solution was diluted in a 100-mL volumetric flask using the sample diluent. The D9-THC concentration was 0.00005 mg/mL in the working standard solution, corresponding with 10 ppm of D9-THC as compared to the CBD sample solution.
About 50 mg of cannabidiol sample was weighed into a 10-mL volumetric flask. The volumetric flask was diluted to volume using sample diluent and mixed well.
A minimum of 6 working standard solutions were injected prior to the sample set. Furthermore, a maximum of 6 injections of CBD sample were injected between bracketing working standard solutions.
The amount of THC in each sample was calculated using the following
For reference, each chromatogram in FIG. 6A through FIG. 6F is shown against a 10 ppm THC working standard. For samples 1, 2, and 3, roughly 50.28 mg, 50.77 mg, and 55.60 mg material was used.

[2] = Particle size distribution (Mastersizer 2000 laser diffraction, Morphologi G3)
Description: A Mastersizer 2000 was used to analyze the particle size distribution in cannabidiol samples. This method involved laser diffraction to measure the particle size distribution by the volume standard. Roughly 1 g of each sample was weighed and transferred along the middle of the sample tray. The sample feed gates were 6 mm-8 mm. The instrument software parameters were set to a dispersive air pressure of 3 bar, vibration feed rate of 60%, refractive index of 1.5295, absorption index of 0.01, and size range from 0.020 μm to 2000.000 μm. FIG. 8A-FIG. 8R show the result analysis report for each sample measured as well as their respective particle size distribution graph. Malvern Pananalytical's Morphologi G3 Analyzer was used in another series of experiments to examine sample volume size distribution.

[3] = Quantitative thermodynamic solubility determination at ambient temperature, evaporated solids analyzed by XRPD; details: for solubility: thermodynamic from solid, ambient temperature
Experimental: A quantitative thermodynamic solubility determination was performed on crude cannabidiol obtained via Protocol 2 to aid in the selection of solvents for crystallization experiments. The clear solutions obtained from each solubility determination experiment were evaporated and the obtained solids were analyzed by XRPD.
When the material precipitated as a solid, it was classified as Form A. However, in 11 experiments, the material obtained after evaporation was oil-like in appearance and could not be analyzed by XRPD. When no XRPD record was generated, the field was defined as “Not Applicable” (N/A).

[4] = after stored for 23 days at 55-60° C.
[5] = after storage at −16° C. for two years

## C=C(C)[C@@H]1CCC(C)=C[C@H]1c1c(O)cc(CCCCC)cc1O [Sample 1, Cannabidiol]
[1]; [4]
  Result (D9-THC in ppm): 1.9 ppm
[2]
  Malvern 2K (dry dispersion) D10: D10: 7.8 um
  Malvern 2K (dry dispersion) D50: D50: 21.8 um
  Malvern 2K (dry dispersion) D90: D90: 152.9 um

## C=C(C)[C@@H]1CCC(C)=C[C@H]1c1c(O)cc(CCCCC)cc1O [Sample 2, Cannabidiol]
[1]; [4]
  Result (D9-THC in ppm): 5.9 ppm
[2]
  Malvern 2K (dry dispersion) D10: D10: 8.0 um
  Malvern 2K (dry dispersion) D50: D50: 23.9 um
  Malvern 2K (dry dispersion) D90: D90: 157.5 um

## C=C(C)[C@@H]1CCC(C)=C[C@H]1c1c(O)cc(CCCCC)cc1O [Sample 3, Cannabidiol]
[1]; after storage for one month at room temperature (25° C.)
  Result (D9-THC in ppm): 5.1 ppm

## C=C(C)[C@@H]1CCC(C)=C[C@H]1c1c(O)cc(CCCCC)cc1O [Sample 4, Cannabidiol]
[1]; [5]
  Result (D9-THC in ppm): 8.3 ppm

## C=C(C)[C@@H]1CCC(C)=C[C@H]1c1c(O)cc(CCCCC)cc1O [Sample 5, Cannabidiol]
[1]; [5]
  Result (D9-THC in ppm): 21.7 ppm

## C=C(C)[C@@H]1CCC(C)=C[C@H]1c1c(O)cc(CCCCC)cc1O [Sample 6, Cannabidiol]
[1]; [5]
  Result (D9-THC in ppm): 7.3 ppm

## C=C(C)[C@@H]1CCC(C)=C[C@H]1c1c(O)cc(CCCCC)cc1O [crude cannabidiol, cannabidiol]
[3]; organic solvent or mixture, 1,2-Dimethoxyethane
  solubility: > 100 mg/mL
[3]; organic solvent or mixture, 1-Propanol
  solubility: > 100 mg/mL
[3]; organic solvent or mixture, 1.4-Dioxane
  solubility: > 100 mg/mL
[3]; organic solvent or mixture, 2-Butanone
  solubility: > 100 mg/mL
[3]; organic solvent or mixture, 2-propanol
  solubility: > 100 mg/mL
[3]; organic solvent or mixture, Acetone
  solubility: > 100 mg/mL
[3]; organic solvent or mixture, Acetonitrile
  solubility: > 100 mg/mL
[3]; organic solvent or mixture, Anisole
  solubility: > 100 mg/mL
[3]; organic solvent or mixture, Chloroform
  solubility: > 100 mg/mL
[3]; organic solvent or mixture, Cumene
  solubility: > 100 mg/mL
[3]; organic solvent or mixture, Cyclohexane
  solubility: > 100 mg/mL
[3]; organic solvent or mixture, Dichloromethane
  solubility: > 100 mg/mL
[3]; organic solvent or mixture, Diethyl ether
  solubility: > 100 mg/mL
[3]; organic solvent or mixture, Ethanol
  solubility: > 100 mg/mL
[3]; organic solvent or mixture, Ethyl Acetate
  solubility: > 100 mg/mL
[3]; organic solvent or mixture, Ethyl Formate
  solubility: > 100 mg/mL
[3]; organic solvent or mixture, Heptane
  solubility: 64.6 mg/mL (≈ 205 mM)
[3]; organic solvent or mixture, Isobutanol
  solubility: > 100 mg/mL
[3]; organic solvent or mixture, Isopropyl acetate
  solubility: > 100 mg/mL
[3]; organic solvent or mixture, Methanol
  solubility: > 100 mg/mL
[3]; organic solvent or mixture, Tert-Butyl methyl ether
  solubility: > 100 mg/mL
[3]; organic solvent or mixture, Tetrahydrofuran
  solubility: > 100 mg/mL
[3]; organic solvent or mixture, Toluene
  solubility: > 100 mg/mL
[3]; organic solvent or mixture, p-Xylene
  solubility: > 100 mg/mL
[3]; solid after evaporation of 1.4-Dioxane solution
  XRPD: Form A
[3]; solid after evaporation of 2-Butanone solution
  XRPD: Form A
[3]; solid after evaporation of Chloroform solution
  XRPD: Form A
[3]; solid after evaporation of Cyclohexane solution
  XRPD: Form A
[3]; solid after evaporation of Dichloromethane solution
  XRPD: Form A
[3]; solid after evaporation of Diethyl ether solution
  XRPD: Form A
[3]; solid after evaporation of Ethyl Acetate solution
  XRPD: Form A
[3]; solid after evaporation of Ethyl Formate solution
  XRPD: Form A
[3]; solid after evaporation of Heptane solution
  XRPD: Form A
[3]; solid after evaporation of Isopropyl acetate solution
  XRPD: Form A
[3]; solid after evaporation of Tert-Butyl methyl ether solution
  XRPD: Form A
[3]; solid after evaporation of Tetrahydrofuran solution
  XRPD: Form A
[3]; solid after evaporation of Toluene solution
  XRPD: Form A
[3]; solid after evaporation of Water solution
  XRPD: Form A
[3]; Water
  solubility: < 0.13 mg/mL

Reference: patent US12144795B2, “Cannabidiol compositions having modified cannabinoid profiles” (priority 2018, dated 2024)
